Results taken from the supplement of paper PMC10307832.

Assays:
Assay in all cases: relative viability (nuclei count vs DMSO), 5 days (fraction); higher = more cells survive
[1] = compound: CC(O)(CS(=O)(=O)c1ccc(F)cc1)C(=O)Nc1ccc(C#N)c(C(F)(F)F)c1 [Bicalutamide] + Cc1nc(Nc2ncc(C(=O)Nc3c(C)cccc3Cl)s2)cc(N2CCN(CCO)CC2)n1 [Dasatinib] (partner 0.075 µM)
Outline: (§1)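 Relative viability is defined as nuclei in treated wells over nuclei in vehicle wells. Duplicate plates were run and medians reported. Lung cancer cell lines in 1536-well plates were dosed by pin tool one day after seeding, with one drug or with a fixed anchor-drug dose plus five library-drug doses (not always all listed) in √10 steps, and nuclei were counted after 5 days.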

[2] = compound: C(C(=O)C(=O)O)Br [Bromopyruvate] + CS(=O)(=O)N1CCN(Cc2cc3nc(-c4cccc5[nH]ncc45)nc(N4CCOCC4)c3s2)CC1 [Pictilisib] (partner 1 µM)
Outline: as §1

[3] = compound: C(C(=O)C(=O)O)Br [Bromopyruvate] + O=C(c1cc(Cc2n[nH]c(=O)c3ccccc23)ccc1F)N1CCN(C(=O)C2CC2)CC1 [Olaparib] (partner 8 µM)
Outline: as §1

[4] = compound: C(C(=O)C(=O)O)Br [Bromopyruvate] + CC(C)C[C@H](NC(=O)[C@H](Cc1ccccc1)NC(=O)c1cnccn1)B(O)O [Bortezomib] (partner 0.002 µM)
Outline: as §1

Cell Line	relative viability ([1]; first compound 0.08 µM)	relative viability ([1]; first compound 0.253 µM)	relative viability ([1]; first compound 0.8 µM)	relative viability ([1]; first compound 2.53 µM)	relative viability ([2]; first compound 1 µM)	relative viability ([2]; first compound 3.162 µM)	relative viability ([2]; first compound 10 µM)	relative viability ([2]; first compound 31.62 µM)	relative viability ([2]; first compound 100 µM)	relative viability ([3]; first compound 1 µM)	relative viability ([3]; first compound 3.162 µM)	relative viability ([3]; first compound 10 µM)	relative viability ([3]; first compound 31.62 µM)	relative viability ([3]; first compound 100 µM)	relative viability ([4]; first compound 1 µM)	relative viability ([4]; first compound 3.162 µM)	relative viability ([4]; first compound 10 µM)	relative viability ([4]; first compound 31.62 µM)	relative viability ([4]; first compound 100 µM)
HCC-366	0.556	0.481	0.749	0.5	0.157	0.208	0.205	0.143	0.164	0.365	0.323	0.345	0.321	0.284	1.04	1.06	1.38	1.09	1.18
HCC-827	0.328	0.19	0.315	0.293	1.08	0.909	1.14	1.17	0.849	0.757	0.706	0.732	0.616	0.588	1.05	1.07	1.03	1.08	1.05
HOP-62	0.663	0.646	0.815	0.516	0.71	0.889	–	0.836	0.988	0.373	0.432	0.798	0.525	0.157	0.739	0.832	–	0.547	0.628
LC-2-ad	0.693	0.514	0.701	0.514	0.477	0.494	0.513	0.572	0.548	0.816	0.665	0.352	0.666	0.664	0.924	0.934	1.07	0.977	0.988
LCLC-97TM1	0.954	0.853	0.813	0.817	–	–	0.244	0.191	0.183	0.467	0.458	0.481	0.352	0.212	0.957	0.625	0.735	0.573	0.586
LCLC-103H	0.401	0.428	0.52	0.425	0.508	0.596	0.684	0.524	0.592	0.744	0.773	0.752	0.848	0.809	1.05	0.998	1.06	1.08	1.16
LOU-NH91	0.635	0.43	0.605	0.568	0.588	0.548	0.48	0.516	0.589	1	0.902	0.974	0.95	1.01	0.499	0.499	0.518	0.49	0.472
LU99A	0.569	0.536	0.738	0.444	0.306	0.29	0.319	0.306	0.35	0.267	0.237	0.241	0.26	0.134	1.18	1.11	1.05	1.05	1.26
LXF-289	0.214	0.25	0.227	0.194	0.756	0.758	0.802	0.867	0.816	1.13	1.03	1.1	1.15	1.04	1.04	0.966	0.975	1.03	1
NCI-H23	0.789	0.67	1.07	0.802	0.448	0.535	0.433	0.502	0.409	0.318	0.316	0.321	0.399	0.196	1.03	0.991	1.25	0.941	0.839
NCI-H322M	0.236	0.248	0.264	0.319	0.464	0.536	0.502	0.529	0.56	0.715	0.82	0.743	0.737	0.687	1.2	1.25	1.12	1.18	1.26
NCI-H441	0.646	0.63	0.664	0.534	0.428	0.543	0.498	0.466	0.571	0.604	0.538	0.643	0.564	0.602	0.37	0.549	0.481	0.548	0.459
NCI-H460	0.498	0.44	0.646	0.483	0.483	0.315	0.419	0.358	0.349	0.457	0.404	0.469	0.397	0.462	1.06	1.14	1.34	0.978	1.07
NCI-H520	0.192	0.195	0.185	0.137	0.264	0.34	0.337	0.293	0.317	0.37	0.32	0.367	0.302	0.264	0.6	0.595	0.532	0.49	0.541
NCI-H596	0.576	0.599	0.798	0.598	0.431	0.396	0.419	0.419	0.423	0.755	0.645	0.671	0.754	0.782	–	1.14	1.01	0.915	1.03
NCI-H647	0.187	0.173	0.208	0.139	0.433	0.421	0.393	0.474	0.455	0.567	0.541	0.494	0.585	0.532	0.93	1.01	1	1.18	0.961
NCI-H650	0.483	0.42	0.456	0.356	0.804	0.778	0.972	0.92	1.01	0.324	0.378	0.379	0.278	0.206	0.946	0.819	0.856	0.897	0.973
